Consider seven substances from patent US11370816B2, “Histatins and method of use thereof” (THE BOARD OF TRUSTEES OF THE UNIVERSITY OF ILLINOIS, priority 2015, dated 2022).

Starred links: 1 amine or outer side, 2 acyl side, 3 side chain; linkers in the order of their positions; H or OH if unused. Non-standard residues stand in square brackets, D forms with d. No end group written: not given here. (CH2)6 = -(CH2)6- hydrocarbon linking residues, C(CCC[*:2])CC[*:1]; pS = N[C@@H](COP(=O)(O)O)C(=O)O

In test [1] the test system is human corneal epithelial cells. The test is described as follows: Benzalkonium chloride (BAK) injury model, LDH release. It counts as cell-based. To be noted: 0.002% BAK. How it is done:
Columns represent the mortality (mean±SD) of cells, total cellular death being 100% (Control).
One particularly useful model of dry eye disease and inflammatory ocular disease is the use of benzalkonium chloride (BAK) to induce cell death, inflammation and injury to ocular surfaces and corneal cells (Tressler, et al. (2011) Ocul. Surf. 9:140-58; Paimela, et al. (2012) Mol. Vis. 18:1189-1196). Briefly, human corneal epithelial cells were cultured under standard conditions. Cells were treated with native HTN5 (50 μM) or synthetic histatin (10 μM) in the presence or absence of 0.002% BAK. The permeability of cellular membranes following the exposures was determined by measuring the amount of released lactate dehydrogenase (LDH) enzyme from the cells. Maximum LDH release of cells was determined by lysing cells, and subsequently measuring the LDH from the culture medium. […] Accordingly, endogenous and synthetic histatins could be used to protect cells from injury, inflammation and cell death and are therefore of use in the treatment of dry eye disease.
A general note: Release of lactate dehydrogenase indicates damage to the cell membrane.

The conditions of test [2]: Oudhoff, et al. (2008); cited from earlier work.
The subject of another test is Candida albicans. To be noted: Jang, et al. (2008); cited from earlier work.
The next test concerns human corneal epithelium. In words: Gene expression changes after synthetic histatin application. To be noted: synthetic histatin treatment. It counts as cell-based. From the text: Pathophysiological analyses of dry eye disease indicate that the critical factors involved in the development of dry eye disease involve inflammatory pathways including Th17/IL-17, I-CAM, IL-8, TNFα/IL-1/IL-6/NFκB, IL-10, MMP9 (and other matrix metalloproteinases) and TLR4/HSP (Stevenson, et al. (2012) Arch. Ophthalmol. 130(1):90-100). In addition, it has been reported that Ephrin A is involved in the development of epitheliopathy, poor wound healing and corneal disease related to elevated sugar levels/diabetic and neuropathic ulcers of the ocular surface. Accordingly, it was determined what effect synthetic histatin application would have on the gene expression in human corneal epithelium. […] Th17/IL-17 pathway is a central and important pathway in dry eye disease (Stevenson, et al. (2012) Arch Ophthalmol. 130(1):90-100).

For test [3], the system named is Human umbilical vein endothelial cells (HUVECs). In words: Tube formation assay, VEGF-induced angiogenesis. It counts as cell-based. To be noted: VEGF 10 ng/mL, peptide 50 μM. How it is done:
Tube formation assays were used to assess the anti-angiogenic property of synthetic histatin compared to native HTN1 and HTN2. Human umbilical vein endothelial cells (HUVECs) were suspended in diluted MATRIGEL for an overnight incubation and then subjected to a media change containing VEGF (10 ng/mL) (Goodwin (2007) Microvasc. Res. 74:172-83) alone or VEGF (10 ng/mL) in combination with HTN1, HTN2 or synthetic histatin (50 μM).

The test system of test [4] is human corneal epithelium cells. In words: In vitro scratch assay (cell migration, wound closure). To be noted: for Time to Closure: control no closure in 48 hours. Format: cell-based. The source says:
A conventional in vitro scratch assay was used to measure cell migration in the presence of a synthetic histatin containing three metal binding domains from HTN5 and one wound healing domain (i.e., SEQ ID NO:29). A “scratch” was made in a monolayer of human corneal epithelium cells and time lapsed microscopy was used to capture images at the beginning and at regular intervals during cell migration to close the scratch.

A further test deals with T1, MMP2 (Homo sapiens, UniProt P08253).
T1 sequence (P08253 110-660): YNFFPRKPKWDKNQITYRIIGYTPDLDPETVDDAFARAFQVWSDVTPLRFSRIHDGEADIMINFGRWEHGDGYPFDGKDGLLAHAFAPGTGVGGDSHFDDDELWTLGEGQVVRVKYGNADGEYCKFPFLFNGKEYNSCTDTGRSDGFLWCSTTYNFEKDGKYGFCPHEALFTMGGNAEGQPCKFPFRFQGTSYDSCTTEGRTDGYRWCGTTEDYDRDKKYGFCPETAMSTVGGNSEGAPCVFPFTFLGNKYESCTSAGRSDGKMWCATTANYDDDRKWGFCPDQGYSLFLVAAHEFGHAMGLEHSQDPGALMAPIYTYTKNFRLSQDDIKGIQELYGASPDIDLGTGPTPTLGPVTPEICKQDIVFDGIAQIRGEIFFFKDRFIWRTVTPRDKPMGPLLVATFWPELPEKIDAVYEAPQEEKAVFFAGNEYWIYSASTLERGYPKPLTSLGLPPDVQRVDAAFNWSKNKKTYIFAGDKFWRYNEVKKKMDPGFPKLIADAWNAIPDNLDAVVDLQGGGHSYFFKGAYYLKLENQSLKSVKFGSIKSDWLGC
The test is described as follows: Zymography analysis of MMP2 inhibition. Format: biochemical. The conditions noted are these: pro-MMP2 activated with APMA, varying amounts of peptide. The protocol: FIG. 1 show zymographic analysis of synthetic histatin inhibitory activity. Experiments included pro-MMP2 (100 ng; “−Ve”); activation of Pro-MMP2 with APMA (1 mM; “+Ve”); inclusion of a classic matrix metalloproteinase inhibitor, GM6001 (200 nM; “Inh”); and varying amounts of a synthetic histatin containing three metal binding domains from endogenous HTN5 and a wound healing domain from endogenous HTN1 (“H-1”). The protein ladder is shown on the right.
Zymography analysis of a synthetic histatin containing three metal binding domains from HTN5 and one wound healing domain (i.e., SEQ ID NO:29) was carried out using conventional methods. See, e.g., Thomadaki, et al. (2013) Oral Dis. 19(8):781-8.

The conditions of test [5]: Oppenheim, et al. (2012); cited from earlier work.

Take “DSHAKRHHGYKRKFHEKHHSHRGY [HTN5, endogenous (native) histatin 5, reference compound]”: the “cell death (released LDH)” value in test [1] (50 μM peptide) is reported as “statistically significant reduction in cell death”. Besides, in test [2], the “wound closure activity in vitro” value was “inactivity”.

In the case of AKRHHGYKRKFH [P-113], the fungicidal activity result with Candida albicans is on record as “exhibits fungicidal activity”.

In the case of “HEKHH-(CH2)6-HEKHH-(CH2)6-HEKHH-(CH2)6-YGDYGSNYLYDN (HEKHH[(CH2)6]HEKHH[(CH2)6]HEKHH[(CH2)6]YGDYGSNYLYDN) [synthetic histatin]”, in the test on human corneal epithelium, the “expression of genes related to MMP activity” value is listed as “reduced”, the “expression of several members of the TNFα/IL-1/IL-6/NFKB pathway” value is reported as “significant reduced”, the “genes of the IL-10 pathway (62 genes) affected” value came out at 6 and the “genes of the TLR4/HSP pathway (54 genes) significantly affected” value was found to be 5. Moreover, the “genes of the Th17/IL-17 pathway (44 genes) with significant changes in gene expression” value in the test on human corneal epithelium is listed as 7. The “cell death (released LDH)” value in test [1] (10 μM peptide) is given as “statistically significant reduction in cell death”. The “formation of capillary-like structures / inhibition of angiogenesis” value in test [3] is reported as “did not form such structures”. The “Time to Closure” value in test [4] (1 μM synthetic histatin) was determined as 48 h. Also, in test [4] (10 μM synthetic histatin), the “Time to Closure” value is 22 h. In addition, the “wound healing (reduction in time to wound closure)” value in test [4] (scratch in monolayer, time lapsed microscopy) is reported as “notable enhancement of wound healing”. In the test with MMP2, the “inhibition of MMP2 activity” value is on record as “inhibited MMP2 activity in a dose-dependent manner”.

For the substance “DSpHEKRHHGYRRKFHEKHHSHREFPFYGDYGSNYLYDN (D[pS]HEKRHHGYRRKFHEKHHSHREFPFYGDYGSNYLYDN) [HTN1, endogenous (native) histatin 1]”, in test [3], the “formation of capillary-like structures / inhibition of angiogenesis” value is reported as “inhibition of angiogenesis”. In test [2], the “wound closure activity in vitro” value was “exhibit wound closure activities in vitro”.

For RKFHEKHHSHRGYR [SEQ ID NO:53], the fungicidal activity result in test [5] was “exhibit fungicidal activity”.

Take “RKFHEKHHSHREFPFYGDYGSNYLYDN [HTN2, endogenous (native) histatin 2]”: the “formation of capillary-like structures / inhibition of angiogenesis” value in test [3] is “inhibition of angiogenesis”.

As to “DSHAKRHHGYKRKFHEKHHSHRGYRSNYLYDN [HTN3, endogenous (native) histatin 3]”, the “wound closure activity in vitro” value in test [2] is “exhibit wound closure activities in vitro”.
